This is an account of results in patent US9661870B2, “Nanogel comprising water-soluble active ingredients” (DSM IP ASSETS B.V., priority 2012, dated 2017).

The conditions of data set [1]: cited from earlier work.
The nature of data set [2]: Interaction of folic acid with soy protein, soy polysaccharide or complex nanogel at pH 7.4; free folic acid isolated by ultrafiltration. Format: physicochemical. The following applies: FA concentration in feed 0.5 mM. As for the experimental part:
Considering the solubility of folic acid, the interaction at pH 7.4 was investigated. The individual protein solution, individual polysaccharide solution, and the protein/polysaccharide complex nanogel solution were adjusted to pH 7.4 first. Then the folic acid, dissolved in 10 mM phosphate buffer pH 7.4, was added and the mixture was incubated under stirring at room temperature overnight. The final protein concentration in the mixture was 4 mg/ml and polysaccharide concentration was 12 mg/ml. The free folic acid in the mixture was isolated by a high-flow ultrafiltration membrane (cutoff molecular weight 3 kDa, MicroconYM-3, Millipore), and was collected in the ultrafiltrate. Individual folic acid solution was also passed through the ultrafiltration membrane; 97% of the folic acid (Table 1) in the ultrafiltrate confirms the recovery of the folic acid. The individual protein, individual polysaccharide, and protein/polysaccharide complex nanogel solutions were also passed through the ultrafiltration membrane; their UV spectra of the ultrafiltrates (FIG. 1) show the absorbance at UV region, indicating small peptides in the ultrafiltrates. The FA concentration in the ultrafiltrate was calculated by deducting the 280 nm absorbance shown in FIG. 1 from the 280 nm absorbance of the ultrafiltrate.

Data set [3] in a line: UV degradation of folic acid (450 nm fluorescence before and after UV radiation). The following applies: for Degradation degree / IUV/I (ratio of FA fluorescence intensity after UV radiation to before): UV radiation pH 7.4. Format: physicochemical. The text has this:
As mentioned above, folic acid is sensitive to UV radiation. Because of intramolecular fluorescence quenching, folic acid has an extremely low fluorescence quantum yield, approximately 0.005. Pterins, which is formed after the cleavage of the C9-N10 bond in the folic acid molecule, has an increased fluorescence peak around 445 nm. The fluorescence quantum yield of 6-formyl pterin (FPT) is nearly 0.1 and that of pterin-6-carboxylic acid (PCA) is about 0.2. The fluorescence in the region of 445 nm increases with the formation of FPT as a result of the C9-N10 bond cleavage followed by the photo-induced conversion of FPT to PCA [M. K. Off et al., Journal of Photochemistry and Photobiology B: Biology 80 (2005) 47-55].
The UV degradation of folic acid was investigated in this study. The folic acid/protein/polysaccharide nanogel solution at pH 4.0 containing 0.25 or 0.5 mM folic acid was placed in a 7 ml glass bottle at a distance of 30 cm from a UV radiometer (500 w, peak A=365 nm) for 1 h. Individual folic acid dissolved in 10 mM pH 7.4 phosphate buffer with FA concentration of 0.25 or 0.5 mM was also investigated. The mixture of 5 mg/ml protein and 0.25 mM folic acid at pH 7.4, and the mixture of 15 mg/ml polysaccharide and 0.25 mM folic acid at pH 7.4 were also investigated. After the UV radiation, the folic acid/protein/polysaccharide nanogel solution was adjusted to pH 7.4 to release folic acid. The released folic acid in the solution was isolated by ultrafiltration and was analyzed as described below. After 10 and 20 times dilution for 0.25 and 0.5 mM folic acid, respectively, the 450 nm fluorescence intensity of the ultrafiltrate excited at 348 nm was measured.
For individual folic acid solution, after the UV radiation, the fluorescence intensity at 450 nm increases 89 and 85 times when folic acid concentration was 0.25 and 0.5 mM, respectively. The average 87 times of the increase for the fluorescence intensity after the UV radiation indicates the degradation of the folic acid inside the glass bottle. […] Compared with the individual folic acid, the degradation of folic acid reduces to 30% and 22% in the presence of polysaccharide and protein at pH 7.4, respectively. Folic acid/protein/polysaccharide nanogels can effectively protect the folic acid from the degradation at pH 4.0; only 12% of the loaded folic acid was degraded after the same UV radiation. […] The released and isolated folic acid from folic acid/protein/polysaccharide nanogels was radiated by UV light. After the same radiation, the folic acid fluorescence changed as the folic acid solution prepared at pH 7.4 directly.
The UV degradation of folic acid was investigated. Compared with the individual folic acid, the degradation of folic acid reduces to 19% in the presence of pea protein (Table 4). Folic acid/pea protein/polysaccharide nanogels can effectively protect the folic acid from the degradation at pH 4.0; only 13% of the loaded folic acid was degraded after the same UV radiation.

Where [4] appears, read: Table 3, FA in feed 0.25 mM, UV 1 h.
Where [5] appears, read: Table 3, FA in feed 0.5 mM, UV 1 h.

With `O=C(O)CCCC[C@@H]1SC[C@@H]2NC(=O)N[C@@H]21` [biotin], the pKa (as a rule, the negative logarithm of the acid dissociation constant) in data set [1] is reported as 5.33.
For the compound `Nc1nc2ncc(CNc3ccc(C(=O)N[C@@H](CCC(=O)O)C(=O)O)cc3)nc2c(=O)[nH]1` [FA, folic acid], in data set [1], the pKa is given as 4.7. In addition, the “FA concentration in ultrafiltration” value in data set [2] was found to be 0.485 ± 0.01 mM. Besides, the “Recovered FA in ultrafiltration” value was determined as 97 ± 2% in data set [2] and 97% in data set [2] (listed as folic acid). Moreover, the Degradation degree stood at 100% in data set [3] (setting [4]); 100% in data set [3] (setting [5]); 100% in data set [3] (Table 4, FA in feed 0.25 mM). Also, the “IUV/I (ratio of FA fluorescence intensity after UV radiation to before)” value in data set [3] (setting [4]) is 89 ± 3; in data set [3] (Table 3, FA in feed 0.25 mM, UV 1 h, listed as folic acid) it was 89; in data set [3] (setting [5]) it was 85 ± 2; in data set [3] (Table 3, FA in feed 0.5 mM, UV 1 h, listed as folic acid), 85; in data set [3] (Table 4, FA in feed 0.25 mM), 91. The “average increase of the fluorescence intensity after the UV radiation” value in data set [3] (average of 0.25 and 0.5 mM FA, pH 7.4) was determined as 87 times.
